Test results reported in patent US7563774B2, “Combination of FBPase inhibitors and antidiabetic agents useful for the treatment of diabetes” (Metabasis Therapeutics, Inc., priority 2000, dated 2009).

Tests used:
Db/db or ob/ob mice = assay: Acute combination treatment of a glucose-6-phosphatase inhibitor and an FBPase inhibitor in db/db or ob/ob mice (Example GG); assay type: in vivo, mouse; settings: 0.5 to 300 mg/kg p.o.
Method: Db/db or ob/ob mice are purchased at 5 weeks of age from Jackson Laboratories (Bar Harbor, Me.). The mice are maintained under standard vivarium conditions (24-26° C., 12-hour light cycle, 12-hour dark cycle) and receive standard chow and water ad libitum. At more than 10 weeks of age, animals are divided into 4 groups (n=5 to 7/group). […] Food is either withheld or made available after treatment. Blood glucose levels in tail vein samples are measured by means of standard manual or automated methods.

ZDF rats = assay: Chronic combination treatment of an insulin secretagogue and an FBPase inhibitor in the ZDF rat (Example Y); assay type: in vivo; settings: maximal doses, 2 to 12 weeks
Description: Male ZDF rats are purchased at 7 weeks of age from Genetics Models Inc. (Indianapolis, Ind.). […] At 8 weeks of age, animals are divided into 4 treatment groups (n=8/group). The treatments are control, Compound J, glyburide, and the combination of Compound J and glyburide. […] Other parameters measured by standard assays include: lactate, glycerol, alanine, triglycerides, free fatty acids, ketone bodies, hepatic and muscle glycogen, cholesterol, VLDL, HDL, hemoglobin Alc, body weight, food and water intake, as well as other measures of carbohydrate, lipid, and protein metabolism. […] Differences between groups are evaluated ANOVA using an appropriate post hoc test. Results are considered significant with p<0.05.

Goto-Kakizaki (GK) rats = assay: Acute combination treatment of insulin and an FBPase inhibitor in the Goto-Kakizaki rat (Example CC); assay type: in vivo
Method: Male Goto-Kakizaki (GK) rats were purchased at 9 weeks of age from Charles River Japan, Inc. (Tokyo, Japan). The rats were maintained under standard vivarium conditions (24-26° C., 12-hour light cycle, 12-hour dark cycle) and received standard chow and water ad libitum. At 48 weeks of age, animals were divided into 4 groups (n=6/group) after an overnight fast. The treatment groups were control, Compound J, insulin, and combination of Compound J and insulin. […] Insulin (human recombinant insulin, Penfill N300, Novo Nordisk, Denmark) was subcutaneously injected at the dose of 1.5 U/kg. Blood glucose levels in tail vein samples were measured by means of a Glucoloader-F, an automatic glucose analyzer, (A&T Co., Ltd., Tokyo, Japan).

CCOC(=O)[C@H](C)NP(=O)(N[C@@H](C)C(=O)OCC)c1ccc(-c2nc(N)sc2CC(C)C)o1 [Compound J, 2-Amino-5-isobutyl-4-{2-[5-(N,N′-bis((S)-1-ethoxycarbonyl)ethyl)phosphonamido]furanyl}thiazole]
blood glucose lowering (Db/db or ob/ob mice): significantly lower blood glucose relative to control values
glycemic control (ZDF rats): more effective than glyburide as pancreatic function declines
plasma glucose lowering (Goto-Kakizaki (GK) rats; GK rats, acute): progressively decreased plasma glucose
Plasma Glucose, % of before (Goto-Kakizaki (GK) rats; after 2 hour): (65.6 +/− 6.6) %
Plasma Glucose (Goto-Kakizaki (GK) rats; after 2 hour, Compound J 50 mg/kg p.o., insulin 1.5 U/kg s.c.): 106.3 ± 11.0 mg/dL
Plasma Glucose (Goto-Kakizaki (GK) rats; after 4 hours): 79.6 ± 4.9 mg/dL
Plasma Glucose, % of before (Goto-Kakizaki (GK) rats; after 4 hours): (51.0 +/− 2.7) %
Plasma Glucose (Goto-Kakizaki (GK) rats; after 6 hours): 35.4 ± 10.8 mg/dL
Plasma Glucose, % of before (Goto-Kakizaki (GK) rats; after 6 hours): (22.6 +/− 6.7) %
Plasma Glucose (Goto-Kakizaki (GK) rats; before (0 hour)): 161.8 ± 6.6 mg/dL
Plasma Glucose, % of before (Goto-Kakizaki (GK) rats; before (0 hour)): (100.0 +/− 0.0) %
